Measurements: patent US8105652B2, “Methods of making decomposable thin films of polyelectrolytes and uses thereof” (Massachusetts Institute of Technology, priority 2002, dated 2012)

Assay: Release from two-component films with barrier layers
Assay type: physicochemical
Text: In one exemplary embodiment, a range of strategies were employed to control the relative positions of multiple, labeled species within a single film by constructing physical barriers to separate the two components. In one embodiment, films were constructed containing 20-40 base layers of polymer 1/HEP, followed by a set of “barrier” layers including polymer 1/SPS (degradable), PDAC/SPS (non-degradable), thermally cross-linked PAH/PAA, or nothing at all, followed by 20-40 surface layers of polymer 1/DS (FIG. 18). A similar set of films was also constructed, but with the order of the labeled components reversed (e.g., DS base layers and HEP surface layers).
Thus, the use of a single covalently cross-linked PAH/PAA layer was sufficient to separate the two components when deposited onto the surface of the linearly growing polymer 1/DS system, as evidenced by the two-stage release profile. Following a delay of approximately 25 h, the underlying DS was released with a linear profile.
FIG. 27A illustrates the effect of barrier layers on the average release rate from the exemplary two-component systems described above. It is apparent that the average release rate (taken as the average slope of the initial, linear portion of the release curve) of systems including of an underlying layer of linearly-growing DS can be broadly controlled using both multiple layers of a nondegradable system PDAC/SPS or as little as a single layer of cross-linked PAH/PAA. Further, by tuning any of the parameters affecting the degree of cross-linking (e.g., cross-linking time, temperature, number of cross-linked layers), the release rate can be dramatically altered. […] Thus, milder cross-linking conditions (e.g., lower temperatures) may allow for a greater degree of flexibility in tailoring release profiles. Further, aqueous, chemical cross-linking techniques using common biochemical reagents such as carbodiimides may represent a suitable alternative to thermal cross-linking when low temperature fabrication is required. Nevertheless, one skilled in the art will recognize that a range of approaches may be employed to control the release of underlying species, particularly when the underlying species lacks the ability to diffuse throughout the film.
General Considerations. A Harrick PDC-32G plasma cleaner was used to etch silicon substrates (3 cm×2 cm) following rinsing with methanol and deionized water and drying under a stream of dry nitrogen. Layer-by-layer thin films were deposited using an automated Carl Zeiss HMS Series Programmable Slide Stainer. Absorbances from growing films were measured using Fourier Transform Infrared Spectroscopy (FTIR) using a Nicolet Magna IR 550 Series II Spectrometer. Zinc selenide substrates used for transmission FTIR analysis were prepared using the same method employed for silicon substrates, Ellipsometric measurements for film thickness were conducted using a Gaertner Variable Angle Ellipsometer ([…], 70° incident angle) and Gaertner Ellipsometer Measurement Program (GEMP) Version 1.2 software interface. The release of radiolabeled polymers was quantified using a Tri-carb liquid scintillation counter (Model U2200). […] (PAH/PAA) films were thermally cross-linked by incubating films in a Yamoto DVS400 gravity convection oven at 215° C. for indicated time intervals.
Release Studies. For drug release experiments, radiolabeled LbL thin films were first constructed by alternately depositing polymer 1 and the indicated radiolabeled drug(s). Radiolabled deposition solutions containing ^3H-heparin were prepared by combining 1 mL of 50 μCi/mL ^3H-heparin (0.30 mCi/mg, Mn=12500) with 35 mL of 100 mM acetate buffer. Unlabeled heparin (Mn=12500) was added to bring the total concentration of heparin (unlabeled plus labeled) to 2 mg/mL (1.5-2 μCi/mL ^3H). […]

[1] = DS base layer, heparin surface layer, 50 (PDAC/SPS) non-degradable dividing layers
[2] = DS base layer, heparin surface layer, 50 (Poly1/SPS) degradable dividing layers
[3] = DS base layer, heparin surface layer, separated by a single cross-linked layer of (PAH/PAA)
[4] = DS base layer, heparin surface layer, without dividing layers
[5] = heparin base layer, DS surface layer, (PDAC/SPS)50 non-degradable dividing layers
[6] = heparin base layer, DS surface layer, (Poly1/SPS)20 degradable dividing layers
[7] = heparin base layer, DS surface layer, without dividing layers
[8] = polymer 1/DS base, single PAH/PAA bilayer cross-linked 20 min at 215° C., polymer 1/HEP surface

Substance	release pattern [1]	release pattern [2]	release pattern [3]	release pattern [4]	change in release rate (cross-linking times greater than 1.5 h at 215° C., or barriers with more than five cross-linked layers (data not shown))	release pattern [5]	release pattern [6]	release pattern [7]	release of underlying DS (multiple layers of PAH/PAA cross-linked longer than 1.5 h at 215° C., up to 45 days)	average rate of DS release, slower than in corresponding films without covalently cross-linked barrier layers [8]	delay before release of underlying DS [8]	effect of barrier layer on release of heparin (heparin-loaded films coated with a single layer of (PAH/PAA) cross-linked 45 min at 215° C. vs untreated films)
Dextran sulfate sodium salt [DS]	simultaneous release	simultaneous release	sequential release	simultaneous release	one to two order of magnitude decreases	simultaneous release	simultaneous release	simultaneous release	no release of DS was observed	approximately 60%	approximately 25 h	–
Heparin sodium salt	simultaneous release	simultaneous release	sequential release	simultaneous release	–	simultaneous release	simultaneous release	simultaneous release	–	–	–	does not significantly delay
